Experiment: molar heat capacity at constant pressure
Conditions: 101.33 kPa, Crystal, Small sample (50 mg) DSC

[F][Lu]([F])[F] [lutetium(III) fluoride]
Conditions	molar heat capacity at constant pressure [J/K/mol]
399.7 K	96.75
405.1 K	97.02
410.5 K	95.88
415.8 K	95.29
421.1 K	96.94
426.3 K	97.01
431.5 K	96.43
436.7 K	96.58
441.9 K	96.64
447.1 K	96.86
452.2 K	96.8
457.3 K	96.65
462.5 K	95.51
467.6 K	96.35
472.6 K	96.98
477.7 K	97.09
482.8 K	97.11
487.8 K	97.26
492.9 K	97.48
497.9 K	97.58
502.9 K	97.68
508 K	97.97
513 K	98.13
518 K	98.36
523 K	98.49
528 K	98.56
533.1 K	98.68
538.1 K	98.84
543.1 K	98.87
548.1 K	99.13
553.1 K	99.24
558.1 K	99.48
563.1 K	99.09
568.1 K	99.13
573.1 K	99.33
578.1 K	99.5
583.1 K	99.58
588 K	99.58
593 K	99.6
598 K	99.71
603 K	99.98
608 K	100.29
613 K	100.45
618 K	100.4
623 K	100.24
627.9 K	100.69
632.9 K	101.13
637.9 K	100.84
642.9 K	101.01
647.9 K	101.38
652.9 K	101.53
657.9 K	101.67
662.8 K	101.64
667.8 K	101.51
672.8 K	101.61
677.8 K	101.89
682.8 K	102.02
687.8 K	102.07
692.8 K	102.12
697.7 K	102.26
702.7 K	102.44
707.7 K	102.41
712.7 K	102.81
717.7 K	102.66
722.7 K	102.97
727.6 K	102.82
732.6 K	104.53
737.6 K	104.75
742.6 K	104.55
747.6 K	104.86
752.6 K	105.12
757.6 K	104.68
762.6 K	103.97
767.5 K	102.8
772.5 K	103.35
777.5 K	103.53
782.5 K	103
787.5 K	103.29
792.5 K	103.69
797.5 K	103.87
802.4 K	103.76
807.4 K	104.24
812.4 K	103.94
817.4 K	104.08
822.4 K	104.49
827.4 K	104.53
832.4 K	104.46
837.4 K	104.64
842.3 K	104.66
847.3 K	104.56
852.3 K	104.93
857.3 K	104.87
862.3 K	104.94
867.3 K	105.55
872.3 K	105.31
877.3 K	105.62
882.2 K	105.71
887.2 K	105.77
892.2 K	105.39
897.2 K	105.26
902.2 K	105.24
907.2 K	105.2
912.2 K	105.01
917.2 K	103.22
922.2 K	101.86
927.1 K	101.4
932.1 K	101.32
937.1 K	102.01
942.1 K	103.86
947.1 K	104.24
952.1 K	104.41
957.1 K	104.36
962.1 K	105.18
967.1 K	105.18
972.1 K	104.61
977 K	104.97
982 K	105.26
987 K	104.58
992 K	104.27
997 K	104.7
1002 K	104.37
1007 K	105.57
1012 K	107.7
1017 K	107.28
1022 K	106.62
1027 K	106.36
1031.9 K	106.14
1036.9 K	106.21
1041.9 K	106.18
1046.9 K	106.45
1051.9 K	105.23
1056.9 K	104.62
1061.9 K	103.86
1066.9 K	102.81
1071.9 K	104.66
1076.9 K	107.09
1081.9 K	107.68
1086.9 K	108.09
1091.9 K	108.21
1096.9 K	108.47
1101.9 K	108.65
1106.9 K	108.92
1111.9 K	108.53
1116.9 K	109.02
1121.9 K	108.84
1126.9 K	109.6
1131.9 K	109.55
1136.9 K	109.42
1141.8 K	108.84
1146.8 K	109.13
1151.8 K	109.39
1156.8 K	108.91
1161.8 K	108.91
1166.8 K	109.26
1171.8 K	109.47
1176.8 K	109.96
1181.8 K	108.7
1186.8 K	107.48
1191.8 K	106.02
1196.8 K	104.98
1201.8 K	104.23
1206.8 K	104.19
1211.8 K	107.96
